The numbers were not newly measured in US20090053319A1 (priority 2007, published 2009), which cites them from elsewhere.

For this data set the following is noted: pure capsaicinoid; background statement.

The structures appear in SMILES notation.

Take `COc1cc(CNC(=O)CCCC/C=C/C(C)C)ccc1O` [Capsaicin]: the “pungency (Scoville scale)” value is given as 15,000,000-16,000,000 Scoville units.
